Laboratory results published in patent US20130157954A1, “METHODS FOR TREATMENT OR PROPHYLAXIS OF KIDNEY OR LIVER DYSFUNCTION” (NPS PHARMACEUTICALS, INC., priority 2010, published 2013).

Test: Example 2: liver biomarkers (albumin, gamma glutamyl transferase, total bilirubin, ALT, AST, ALP) in short bowel syndrome patients, every four weeks for 24 weeks; also sorted by >10% change from baseline
Assay type: in vivo, Human
Conditions: 0.05 mg/kg/d
Experimental: To further confirm the results of Example 1, a further study was conducted involving more individuals and additional diagnostic biomarkers. Human patients with short bowel syndrome were divided into two groups: a control group (43 total individuals) to receive placebo, and an experimental group (42 total individuals) to receive teduglutide at 0.05 mg/kg/day throughout the study. Patients were treated by subcutaneous injection of placebo or the appropriate dose of teduglutide. Known biomarkers of liver function were monitored every four weeks, for 24 weeks. The liver biomarkers tested included albumin, gamma glutamyl transferase, total bilirubin, ALT and AST and ALP. Before administration of placebo or teduglutide, diagnostic biomarker levels were tested to establish a baseline for each individual.
To determine the effect of GLP-2 on the levels of the diagnostic biomarkers, the average level of each biomarker was measured for the placebo and teduglutide treated groups for each visit. Furthermore, the average change from baseline was calculated using the established baseline values. For FIGS. 17-28, p-values were calculated using the t-test.
P values are provided, which were calculated for each distribution of biomarker changes for each week using the chi-squared test.

Structure (SMILES): CC[C@H](C)[C@H](NC(=O)[C@H](Cc1ccccc1)NC(=O)[C@H](CC(=O)O)NC(=O)[C@H](CCCNC(=N)N)NC(=O)[C@H](C)NC(=O)[C@H](C)NC(=O)[C@H](CC(C)C)NC(=O)[C@H](CC(N)=O)NC(=O)[C@H](CC(=O)O)NC(=O)[C@H](CC(C)C)NC(=O)[C@@H](NC(=O)[C@@H](NC(=O)[C@H](CC(N)=O)NC(=O)[C@H](CCSC)NC(=O)[C@H](CCC(=O)O)NC(=O)[C@H](CC(=O)O)NC(=O)[C@H](CO)NC(=O)[C@H](Cc1ccccc1)NC(=O)[C@H](CO)NC(=O)CNC(=O)[C@H](CC(=O)O)NC(=O)CNC(=O)[C@@H](N)Cc1c[nH]cn1)[C@@H](C)O)[C@@H](C)CC)C(=O)N[C@@H](CC(N)=O)C(=O)N[C@@H](Cc1c[nH]c2ccccc12)C(=O)N[C@@H](CC(C)C)C(=O)N[C@H](C(=O)N[C@@H](CCC(N)=O)C(=O)N[C@H](C(=O)N[C@@H](CCCCN)C(=O)N[C@H](C(=O)N[C@H](C(=O)N[C@@H](CC(=O)O)C(=O)O)[C@@H](C)O)[C@@H](C)CC)[C@@H](C)O)[C@@H](C)CC [teduglutide]
- Bilirubin: subjects Within 10% of Baseline (Week 8, m = 40): 10 (25.0%) n (%)
- Bilirubin: subjects with >10% decrease from Baseline (Week 8, m = 40): 20 (50.0%) n (%)
- Bilirubin: subjects with >10% increase from Baseline (Week 8, m = 40): 10 (25.0%) n (%)
- ALKALINE PHOSPHATASE Change from Baseline Median (Week 12): −23 U/L
- ALT Change from Baseline, Max (Week 12): 35 U/L
- ALT Change from Baseline, Mean (Week 12): −9.8 U/L
- ALT Change from Baseline, Median (Week 12): −4 U/L
- ALT Change from Baseline, Min (Week 12): −62 U/L
- ALT Observed Value, Max (Week 12): 94 U/L
- ALT Observed Value, Min (Week 12): 11 U/L
- AST Change from Baseline, Max (Week 12): 34 U/L
- AST Change from Baseline, Mean (Week 12): −4.2 U/L
- AST Change from Baseline, Median (Week 12): −5 U/L
- AST Change from Baseline, Min (Week 12): −39 U/L
- AST Observed Value, Max (Week 12): 60 U/L
- AST Observed Value, Median (Week 12): 25 U/L
- AST Observed Value, Min (Week 12): 9 U/L
- Albumin Change from Baseline, Max (Week 12): 5 g/L
- Albumin Change from Baseline, Mean (Week 12): -0.9 g/L
- Albumin Change from Baseline, Median (Week 12): -1 g/L
- Albumin Change from Baseline, Min (Week 12): -7 g/L
- Albumin Observed Value, Max (Week 12): 47 g/L
- Albumin Observed Value, Median (Week 12): 41 g/L
- Albumin Observed Value, Min (Week 12): 35 g/L
- Alkaline Phosphatase Change from Baseline, Max (Week 12): 25 U/L
- Alkaline Phosphatase Change from Baseline, Min (Week 12): −127 U/L
- Alkaline Phosphatase Observed Value, Max (Week 12): 304 U/L
- Alkaline Phosphatase Observed Value, Median (Week 12): 98 U/L
- Alkaline Phosphatase Observed Value, Min (Week 12): 52 U/L
- Bilirubin Change from Baseline, Max (Week 12): 5.2 µmol/L
- Bilirubin Change from Baseline, Median (Week 12): -0.05 µmol/L
- Bilirubin Change from Baseline, Min (Week 12): -13.2 µmol/L
- Bilirubin Observed Value, Max (Week 12): 57.8 µmol/L
- Bilirubin Observed Value, Min (Week 12): 3.2 µmol/L
- Gamma Glutamyl Transferase Change from Baseline, Max (Week 12): 56 U/L
- Gamma Glutamyl Transferase Change from Baseline, Mean (Week 12): −8.1 U/L
- Gamma Glutamyl Transferase Change from Baseline, Median (Week 12): −4 U/L
- Gamma Glutamyl Transferase Change from Baseline, Min (Week 12): −162 U/L
- Gamma Glutamyl Transferase Observed Value, Max (Week 12): 240 U/L
- Gamma Glutamyl Transferase Observed Value, Median (Week 12): 51 U/L
- Gamma Glutamyl Transferase Observed Value, Min (Week 12): 8 U/L
- ALT: subjects Within 10% of Baseline (Week 12, m = 34): 10 (29.4%) n (%)
- ALT: subjects with >10% decrease from Baseline (Week 12, m = 34): 17 (50.0%) n (%)
- ALT: subjects with >10% increase from Baseline (Week 12, m = 34): 7 (20.6%) n (%)
- AST: subjects Within 10% of Baseline (Week 12, m = 34): 6 (17.6%) n (%)
- AST: subjects with >10% decrease from Baseline (Week 12, m = 34): 21 (61.8%) n (%)
- AST: subjects with >10% increase from Baseline (Week 12, m = 34): 7 (20.6%) n (%)
- Albumin: subjects Within 10% of Baseline (Week 12, m = 34): 31 (91.2%) n (%)
- Albumin: subjects with >10% decrease from Baseline (Week 12, m = 34): 2 (5.9%) n (%)
- Albumin: subjects with >10% increase from Baseline (Week 12, m = 34): 1 (2.9%) n (%)
- Alkaline Phosphatase: subjects Within 10% of Baseline (Week 12, m = 34): 6 (17.6%) n (%)
- Alkaline Phosphatase: subjects with >10% decrease from Baseline (Week 12, m = 34): 23 (67.6%) n (%)
- Alkaline Phosphatase: subjects with >10% increase from Baseline (Week 12, m = 34): 5 (14.7%) n (%)
- Bilirubin: subjects Within 10% of Baseline (Week 12, m = 34): 10 (29.4%) n (%)
- Bilirubin: subjects with >10% decrease from Baseline (Week 12, m = 34): 15 (44.1%) n (%)
- Bilirubin: subjects with >10% increase from Baseline (Week 12, m = 34): 9 (26.5%) n (%)
- ALT Change from Baseline, Max (Week 16): 45 U/L
- ALT Change from Baseline, Mean (Week 16): −8.0 U/L
- ALT Change from Baseline, Median (Week 16): −3 U/L
- ALT Change from Baseline, Min (Week 16): −64 U/L
- ALT Observed Value, Max (Week 16): 140 U/L
- ALT Observed Value, Min (Week 16): 13 U/L
- AST Change from Baseline, Max (Week 16): 20 U/L
- AST Change from Baseline, Mean (Week 16): −3.3 U/L
- AST Change from Baseline, Median (Week 16): −3 U/L
- AST Change from Baseline, Min (Week 16): −42 U/L
- AST Observed Value, Max (Week 16): 65 U/L
- AST Observed Value, Median (Week 16): 26 U/L
- AST Observed Value, Min (Week 16): 9 U/L
- Albumin Change from Baseline, Max (Week 16): 3 g/L
- Albumin Change from Baseline, Mean (Week 16): -0.7 g/L
- Albumin Change from Baseline, Median (Week 16): -0.5 g/L
- Albumin Change from Baseline, Min (Week 16): -5 g/L
- Albumin Observed Value, Max (Week 16): 49 g/L
- Albumin Observed Value, Median (Week 16): 42 g/L
- Albumin Observed Value, Min (Week 16): 32 g/L
- Alkaline Phosphatase Change from Baseline, Max (Week 16): 71 U/L
- Alkaline Phosphatase Change from Baseline, Min (Week 16): −104 U/L
- Alkaline Phosphatase Observed Value, Max (Week 16): 311 U/L
- Alkaline Phosphatase Observed Value, Min (Week 16): 46 U/L
- Bilirubin Change from Baseline, Max (Week 16): 5.2 µmol/L
- Bilirubin Change from Baseline, Min (Week 16): -37.7 µmol/L
- Bilirubin Observed Value, Max (Week 16): 27.4 µmol/L
- Bilirubin Observed Value, Mean (Week 16): 9.40 µmol/L
- Bilirubin Observed Value, Median (Week 16): 8.1 µmol/L
- Bilirubin Observed Value, Min (Week 16): 3.4 µmol/L
- Gamma Glutamyl Transferase Change from Baseline, Max (Week 16): 90 U/L
- Gamma Glutamyl Transferase Change from Baseline, Mean (Week 16): −7.0 U/L
- Gamma Glutamyl Transferase Change from Baseline, Median (Week 16): −5.5 U/L
- Gamma Glutamyl Transferase Change from Baseline, Min (Week 16): −161 U/L
- Gamma Glutamyl Transferase Observed Value, Max (Week 16): 294 U/L
- Gamma Glutamyl Transferase Observed Value, Median (Week 16): 54 U/L
- Gamma Glutamyl Transferase Observed Value, Min (Week 16): 6 U/L
- ALT: subjects Within 10% of Baseline (Week 16, m = 38): 10 (26.3%) n (%)
- ALT: subjects with >10% decrease from Baseline (Week 16, m = 38): 20 (52.6%) n (%)
- ALT: subjects with >10% increase from Baseline (Week 16, m = 38): 8 (21.1%) n (%)
- AST: subjects Within 10% of Baseline (Week 16, m = 38): 12 (31.6%) n (%)
- AST: subjects with >10% decrease from Baseline (Week 16, m = 38): 19 (50.0%) n (%)
- AST: subjects with >10% increase from Baseline (Week 16, m = 38): 7 (18.4%) n (%)
- Albumin: subjects Within 10% of Baseline (Week 16, m = 38): 36 (94.7%) n (%)
- Albumin: subjects with >10% decrease from Baseline (Week 16, m = 38): 2 (5.3%) n (%)
- Albumin: subjects with >10% increase from Baseline (Week 16, m = 38): 0 n (%)
